Reference: article PMC4757451 (Biochemistry, 2015)

What was measured:
CYP3A4 [1] = target: T1, CYP3A4 (Homo sapiens, UniProt P08684, S18F); assay: Product formation; conditions: for Product formation rate after second substrate binding: intermediate with two molecules bound ([20]/[02]); for PGS Product Rate / CBZ Product Rate: mixed substrate global fit
CYP3A4 [2] = target: T1, CYP3A4; assay: Steady-state NADPH oxidation by CYP3A4 Nanodiscs with CPR; type: biochemical

| SMILES | PGS product formation rate in CBZ/PGS mixture at high concentration (CYP3A4 [1]; CBZ/PGS 12:1 mixture, 60 µM and higher PGS) | Maximum PGS product formation rate in CBZ/PGS mixture (CYP3A4 [1]; CBZ/PGS 12:1 mixture, reached at 18–20 µM PGS) | Factor by which PGS hydroxylation in [11] is slower than in [20] (CYP3A4 [1]; [11] versus [20]) | Hill coefficient nH (CYP3A4 [1]; fitting with the Hill equation, pure PGS) | Product formation rate after second substrate binding (CYP3A4 [1]; pure substrate) | Rate of PGS hydroxylation (CYP3A4 [1]; mixed intermediate [11]) | PGS Product Rate (CYP3A4 [1]; mixed intermediate [11]) | PGS Product Rate (CYP3A4 [1]; mixed intermediate [12]) | PGS Product Rate (CYP3A4 [1]; mixed intermediate [21]) | Maximum rate of NADPH consumption, pure substrate (CYP3A4 [2]; at 30 µM PGS, at 200 µM CBZ) | NADPH consumption rate (CYP3A4 [2]; intermediate [20], pure PGS) | Rate of NADPH consumption at higher PGS concentrations (CYP3A4 [2]; pure PGS, above 30 µM, decreases down to this value) | Product formation rate with only one substrate molecule bound (CYP3A4 [1]; first binding intermediate, fitted parameters, in words) | Product formation rate after third binding event (CYP3A4 [1]; intermediate with three molecules bound ([03]), pure substrate) | CBZ Product Rate (CYP3A4 [1]; mixed intermediate [11]) | CBZ product formation rate (CYP3A4 [1]; mixed intermediate [12]) | CBZ Product Rate (CYP3A4 [1]; mixed intermediate [12]) | CBZ product formation rate (CYP3A4 [1]; mixed intermediate [21]) | CBZ Product Rate (CYP3A4 [1]; mixed intermediate [21]) |
| --- | --- | --- | --- | --- | --- | --- | --- | --- | --- | --- | --- | --- | --- | --- | --- | --- | --- | --- | --- |
| CC(=O)[C@H]1CC[C@H]2[C@@H]3CCC4=CC(=O)CC[C@]4(C)[C@H]3CC[C@]12C [PGS, progesterone] | 4 min⁻¹ | 5 min⁻¹ | 4 | 1.7 | 14.7 min⁻¹ | 4 min⁻¹ | 4 (3.7 – 4.2) nmol/nmol/min | 0 (0.01) nmol/nmol/min | 0 (0.02) nmol/nmol/min | 240 min⁻¹ | 388 min⁻¹ | 160 min⁻¹ | – | – | – | – | – | – | – |
| NC(=O)N1c2ccccc2C=Cc2ccccc21 [CBZ, carbamazepine] | – | – | – | – | 1.7 min⁻¹ | – | – | – | – | – | – | – | negligible | 3 min⁻¹ | 0 (0.01) nmol/nmol/min | 4.5 min⁻¹ | 4.5 (2.0 – 6.0) nmol/nmol/min | 11 min⁻¹ | 11 (9.8 – 12.2) nmol/nmol/min |
